biological target: T1, human Chk1 (GST-Chk1) (Homo sapiens, UniProt O14757); experiment: Chk1 FlashPlate kinase assay; format: biochemical; conditions: 8.7 nM GST-Chk1, 1 uM ATP, 33P incorporation into peptide substrate
T1 construct: made in house; host or cells: insect cells (baculovirus, Bac-to-Bac)
T1 sequence (O14757 1-476): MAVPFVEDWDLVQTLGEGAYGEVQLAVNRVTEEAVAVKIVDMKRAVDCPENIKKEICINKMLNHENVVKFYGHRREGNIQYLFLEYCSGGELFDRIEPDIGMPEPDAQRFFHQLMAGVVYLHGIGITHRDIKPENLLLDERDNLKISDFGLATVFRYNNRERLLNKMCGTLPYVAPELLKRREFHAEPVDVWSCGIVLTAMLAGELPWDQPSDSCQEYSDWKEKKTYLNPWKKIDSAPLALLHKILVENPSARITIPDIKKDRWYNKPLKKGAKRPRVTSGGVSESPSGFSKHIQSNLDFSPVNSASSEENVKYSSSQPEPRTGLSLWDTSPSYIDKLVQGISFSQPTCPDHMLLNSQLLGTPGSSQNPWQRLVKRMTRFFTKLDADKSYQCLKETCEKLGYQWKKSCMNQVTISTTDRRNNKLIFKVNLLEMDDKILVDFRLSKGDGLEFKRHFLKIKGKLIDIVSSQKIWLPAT
Procedure: Recombinant human Chk1 was expressed as a fusion protein with glutathione S-transferase at the amino-terminus (GST-Chk1) using standard baculovirus vectors and (Bac-to-Bac®) insect cell expression system purchased from GIBCO™ Invitrogen. Recombinant protein expressed in insect cells was purified using glutathione sepharose (Amersham Biotech) using standard procedures described by the manufacturer.
Chk1 FlashPlate® Kinase Assay:
Assays (25 μL) contained 8.7 nM GST-Chk1, 10 mM MES, 0.1 mM ethylene glycol-bis(β-aminoethylether)-N,N,N′,N′-tetracetic acid (EGTA, pH 8.0), 2 mM DTT, 0.05% Tween 20, 3 uM peptide substrate (Biotin-ILSRRPSYRKILND-free acid) (SEQ ID NO: 1), 1 uM ATP, 0.4 uCi ^33P-γ-ATP (NEN), 4% DMSO. Reactions were incubated for 30 minutes at room temperature, terminated with 50 μL of 50 mM EDTA and 90 μL were transferred to streptavidin-coated FlashPlates® (NEN) and incubated for 1 hour at room temperature. Plates were washed with phosphate buffered salaine containing 0.01% Tween-20 and 10 mM sodium pyrophosphate. Plates were dried, sealed with Topseal™ (NEN) and amount of ^33P incorporated into the peptide substate measure using a Packard Topcount® NXT™ scintillation counter with standard settings.

IC50 [nM]	SMILES
1000 to 20000	Cc1[nH]nc2c1c(=O)n(CCNC(=O)C1CCCCC1)c1ccccc21 [Example 93, Cyclohexanecarboxylic acid [2-(3-methyl4-oxo-2,4-dihydro-pyrazolo[4,3-c]quinolin-5-yl)-ethyl]-amide]
< 1000	Cc1[nH]nc2c1c(=O)n(CCCN)c1ccc(N3CCCC3)cc21 [Example 120]
< 1000	Cc1n[nH]c2c1c(=O)n(CCCNC(=O)c1ccccc1)c1ccccc21 [Example 73, N-[3-(3-Methyl-4-oxo-1,4-dihydro-pyrazolo[4,3-c]quinolin-5-yl)-propyl]-benzamide]
< 1000	Cc1[nH]nc2c1c(=O)n(CCCNC(=O)[C@@H](N)Cc1ccc(F)cc1)c1ccccc21 [Example 104, 2-Amino-3-(4-fluoro-phenyl)-N-[3-(3-methyl-4-oxo-2,4-dihydro-pyrazolo[4,3-c]quinolin-5-yl)-propyl]-propionamide]
< 1000	Cc1n[nH]c2c1c(=O)n(CCCN1CCc3ccccc3C1)c1ccccc21 [Example 9, 5-[3-(3,4-Dihydro-1H-isoquinolin-2-yl)-propyl]-3-methyl-1,5-dihydro-pyrazolo[4,3-c]quinolin-4-one]
1000 to 20000	Cc1n[nH]c2c1c(=O)n(CCNC(=O)Nc1ccccc1)c1ccccc21 [Example 87]
> 20000	Cc1[nH]nc2c1c(=O)[nH]c1c(OCCCNC(=O)OC(C)(C)C)cccc12 [Example 24, [3-(3-Methyl-4-oxo-4,5-dihydro-2H-pyrazolo[4,3-c]quinolin-6-yloxy)-propyl]-carbamic acid tert-butyl ester]
< 1000	Cc1[nH]nc2c1c(=O)n(CCCNC(=O)c1ccc(Cl)cc1)c1ccccc21 [Example 60, 4-Chloro-N-[3-(3-methyl-4-oxo-2,4-dihydro-pyrazolo[4,3-c]quinolin-5-yl)-propyl]-benzamide]
< 1000	Cc1[nH]nc2c1c(=O)n(CCCNC(=O)c1cccnc1)c1ccccc21 [Example 82, N-[3-(3-Methyl-4-oxo-2,4-dihydro-pyrazolo[4,3-c]quinolin-5-yl)-propyl]-nicotinamide]
1000 to 20000	Cc1[nH]nc2c1c(=O)n(CCCNC(=O)CCNC(=O)OC(C)(C)C)c1ccccc21 [Example 101, {2-[3-(3-Methyl-4-oxo-2,4-dihydro-pyrazolo[4,3-c]quinolin-5-yl)-propylcarbamoyl]-ethyl}-carbamic acid tert-butyl ester]
< 1000	Cc1n[nH]c2c1c(=O)n(CCCNC(=O)c1ccc(Cl)cc1)c1ccc(Cl)cc21 [Example 40, 4-Chloro-N-[3-(8-chloro-3-methyl-4-oxo-1,4-dihydro-pyrazolo[4,3-c]quinolin-5-yl)-propyl]-benzamide]
< 1000	Cc1n[nH]c2c1c(=O)n(CCCC(=O)O)c1ccc(Br)cc21 [Example 19, 4-(8-Bromo-3-methyl-4-oxo-1,4-dihydro-pyrazolo[4,3-c]quinolin-5-yl)-butyric acid]
< 1000	Cc1n[nH]c2c1c(=O)n(CCN)c1ccccc21 [Example 11, 5-(2-Amino-ethyl)-3-methyl-1,5-dihydro-pyrazolo[4,3-c]quinolin-4-one]
1000 to 20000	Cc1[nH]nc2c1c(=O)[nH]c1c(OCCCN)cccc12 [Example 25, 6-(3-Amino-propoxy)-3-methyl-2,5-dihydro-pyrazolo[4,3-c]quinolin-4-one]
1000 to 20000	Cc1n[nH]c2c1c(=O)n(CCNC(=O)OC(C)(C)C)c1ccccc21 [Example 1, [2-(3-Methyl-4-oxo-1,4-dihydro-pyrazolo[4,3-c]quinolin-5-yl)-ethyl]-carbamic acid tert-butyl ester]
< 1000	Cc1[nH]nc2c1c(=O)n(CCCN)c1ccc(O)cc21 [Example 59, 5-(3-Amino-propyl)-8-hydroxy-3-methyl-2,5-dihydro-pyrazolo[4,3-c]quinolin-4-one]

IC50 [nM]	SMILES
1000 to 20000	Cc1[nH]nc2c1c(=O)n(CCCNC(=O)C(Cc1ccc(F)cc1)NC(=O)OC(C)(C)C)c1ccccc21 (stereo not drawn) [Example 95, {2-(4-Fluoro-phenyl)-1-[3-(3-methyl-4-oxo-2,4-dihydro-pyrazolo[4,3-c]quinolin-5-yl)-propylcarbamoyl]-ethyl}-carbamic acid tert-butyl ester]
1000 to 20000	COc1ccc(Cl)cc1NC(=O)NCCn1c(=O)c2c(C)n[nH]c2c2ccccc21 [Example 89, 1-(5-Chloro-2-methoxy-phenyl)-3-[2-(3-methyl-4-oxo-1,4-dihydro-pyrazolo[4,3-c]quinolin-5-yl)-ethyl]-urea]
< 1000	Cc1[nH]nc2c1c(=O)n(CCCNC(=O)CN)c1ccccc21 [Example 122, 2-Amino-N-[3-(3-methyl-4-oxo-2,4-dihydro-pyrazolo[4,3-c]quinolin-5-yl)-propyl]-acetamide]
< 1000	Cc1[nH]nc2c1c(=O)n(CCCNC(=O)c1ccc(N(C)C)cc1)c1ccccc21 [Example 78, 4-Dimethylamino-N-[3-(3-methyl-4-oxo-2,4-dihydro-pyrazolo[4,3-c]quinolin-5-yl)-propyl]-benzamide]
< 1000	Cc1[nH]nc2c1c(=O)n(CCCNC(=O)CCCN)c1ccccc21 [Example 106, 4-Amino-N-[3-(3-methyl-4-oxo-2,4-dihydro-pyrazolo[4,3-c]quinolin-5-yl)-propyl]-butyramide]
< 1000	Cc1n[nH]c2c1c(=O)n(CCCOCc1ccccc1)c1ccccc21 [Example 12, 5-(3-Benzyloxy-propyl)-3-methyl-1,5-dihydro-pyrazolo[4,3-c]quinolin-4-one]
< 1000	Cc1[nH]nc2c1c(=O)n(CCCNC(=O)C(N)Cc1ccc(Cl)cc1)c1ccccc21 (stereo not drawn) [Example 117, 2-Amino-3-(4-chloro-phenyl)-N-[3-(3-methyl-4-oxo-2,4-dihydro-pyrazolo[4,3-c]quinolin-5-yl)-propyl]-propionamide]
< 1000	Cc1[nH]nc2c1c(=O)n(CCCNC(=O)c1ccc(C#N)cc1)c1ccccc21 [Example 68, 4-Cyano-N-[3-(3-methyl4-oxo-2,4-dihydro-pyrazolo[4,3-c]quinolin-5-yl)-propyl]-benzamide]
< 1000	Cc1[nH]nc2c1c(=O)n(CCCN(C)C)c1ccc(Br)cc21 [Example 18, 8-Bromo-5-(3-dimethylamino-propyl)-3-methyl-2,5-dihydro-pyrazolo[4,3-c]quinolin-4-one]
< 1000	Cc1[nH]nc2c1c(=O)n(CCCNC(=O)CCCc1ccccc1)c1ccccc21 [Example 81, N-[3-(3-Methyl-4-oxo-2,4-dihydro-pyrazolo[4,3-c]quinolin-5-yl)-propyl]-4-phenyl-butyramide]
1000 to 20000	Cc1n[nH]c2c1c(=O)n(Cc1cccnc1)c1ccccc21 [Example 2, 3-Methyl-5-pyridin-3-ylmethyl-1,5-dihydro-pyrazolo[4,3-c]quinolin-4-one]
< 1000	Cc1n[nH]c2c1c(=O)n(CCNCc1ccccc1)c1ccccc21 [Example 4, 5-(2-Benzylamino-ethyl)-3-methyl-1,5-dihydro-pyrazolo[4,3-c]quinolin-4-one]
< 1000	Cc1[nH]nc2c1c(=O)n(CCCN)c1ccc([N+](=O)[O-])cc21 [Example 55, 5-(3-Amino-propyl)-3-methyl-8-nitro-2,5-dihydro-pyrazolo[4,3-c]quinolin-4-one]
1000 to 20000	Cc1[nH]nc2c1c(=O)n(CCNC(=O)N1CCOCC1)c1ccccc21 [Example 112, Morpholine-4-carboxylic acid [2-(3-methyl-4-oxo-2,4-dihydro-pyrazolo[4,3-c]quinolin-5-yl)-ethyl]-amide]
1000 to 20000	Cc1[nH]nc2c1c(=O)n(CCCNC(=O)CNC(=O)OC(C)(C)C)c1ccccc21 [Example 102, {[3-(3-Methyl-4-oxo-2,4-dihydro-pyrazolo[4,3-c]quinolin-5-yl)-propylcarbamoyl]-methyl}-carbamic acid tert-butyl ester]
< 1000	Cc1[nH]nc2c1c(=O)n(CCCNC(=O)C1CCC(=O)N1)c1ccccc21 (stereo not drawn) [Example 103, 5-Oxo-pyrrolidine-2-carboxylic acid [3-(3-methyl-4-oxo-2,4-dihydro-pyrazolo[4,3-c]quinolin-5-yl)-propyl]-amide]

SMILES	IC50 [nM]
Cc1[nH]nc2c1c(=O)n(CCCNC(=O)CCC(NC(=O)OC(C)(C)C)C(=O)OC(C)(C)C)c1ccccc21 (stereo not drawn) [Example 99, 2-tert-Butoxycarbonylamino-4-[3-(3-methyl-4-oxo-2,4-dihydro-pyrazolo[4,3-c]quinolin-5-yl)-propylcarbamoyl]-butyric acid tert-butyl ester]	1000 to 20000

Reference: US20050245563A1 (Millennium Pharmaceuticals, Inc., priority 2003, published 2005)
